Test results published in publication PMC9709778 (RSC Chemical Biology, 2022).

Target: amyloid β (Aβ42) (Homo sapiens, UniProt P05067)
Assay: 1H-15N SOFAST-HMQC NMR chemical shift perturbation
Format: biochemical

amyloid β (Aβ42), sequence (P05067 672-713): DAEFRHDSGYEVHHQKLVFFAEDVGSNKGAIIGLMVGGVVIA

IC50: 10.6 ± 1.3 µM
SMILES: COc1cc(OC)c(C(=O)/C=C/c2ccccc2)c(O)c1O [DDC, 2′,3′-dihydroxy-4′,6′-dimethoxychalcone]
